The source of these data is patent publication US20250346564A1 (ARase Therapeutics Inc., priority 2022, published 2025).

Assay [1] concerns the target T1, PARG (Homo sapiens (Human), UniProt Q86W56). The assay is described as follows: PARG target engagement cellular assay (PAR polymer immunostaining after cisplatin). It counts as cell-based. The conditions noted are these: HCC1806 cells treated with cisplatin, then compound titration for 1 h; PAR polymer antibody readout. The procedure: Example a. Inhibition of PARG Target Engagement Cellular Assay
The ability of the compounds of the Examples to inhibit PARG was determined as described below. After treating HCC1806 cells with cisplatin, followed by PARG inhibitor compound titration for 1 h, the cells were fixed in formaldehyde. The cells were permeabilized, blocked, and incubated with antibody against poly (ADP) ribose (PAR) polymer. The cells were then washed and incubated with IR 800 conjugated secondary antibody together with TO-PRO3 iodide nuclear stain. After washing, images of the cells were captured and analyzed on Odyssey CLx instrument and analyzed using LI-COR image studio software.

Assay [2] has as its target T1, PARG. The assay is described as follows: PARG TFMU assay (4-(trifluoromethyl)umbelliferone substrate). The format is biochemical. As to conditions: PARG 250 pM or 2 nM, 10-point dose response. The procedure: Example C. Inhibition of PARG TEMU Assay
The ability of the compounds of the Examples to inhibit PARG activity in 4. (trifluoromethyl)umbelliferone (TFMU) assay was determined as described below. PARG inhibitors were added into 384 well plate for a 10-point dose response curve at 1:3 dilutions. TFMU PARG substrate and PARG (250 pM or 2 nM) were then added to the plate to initiate enzymatic reaction. After incubation with the reagent, […] was read. IC50 values were calculated using set control points for 100% inhibition as no enzyme and 0% inhibition 250 pM or 2 nM of PARG enzyme.

The IC50 is the concentration needed to halve the response being measured. The low end stands for higher potency, the high end for lower potency.

T1 sequence (Q86W56 whole entry): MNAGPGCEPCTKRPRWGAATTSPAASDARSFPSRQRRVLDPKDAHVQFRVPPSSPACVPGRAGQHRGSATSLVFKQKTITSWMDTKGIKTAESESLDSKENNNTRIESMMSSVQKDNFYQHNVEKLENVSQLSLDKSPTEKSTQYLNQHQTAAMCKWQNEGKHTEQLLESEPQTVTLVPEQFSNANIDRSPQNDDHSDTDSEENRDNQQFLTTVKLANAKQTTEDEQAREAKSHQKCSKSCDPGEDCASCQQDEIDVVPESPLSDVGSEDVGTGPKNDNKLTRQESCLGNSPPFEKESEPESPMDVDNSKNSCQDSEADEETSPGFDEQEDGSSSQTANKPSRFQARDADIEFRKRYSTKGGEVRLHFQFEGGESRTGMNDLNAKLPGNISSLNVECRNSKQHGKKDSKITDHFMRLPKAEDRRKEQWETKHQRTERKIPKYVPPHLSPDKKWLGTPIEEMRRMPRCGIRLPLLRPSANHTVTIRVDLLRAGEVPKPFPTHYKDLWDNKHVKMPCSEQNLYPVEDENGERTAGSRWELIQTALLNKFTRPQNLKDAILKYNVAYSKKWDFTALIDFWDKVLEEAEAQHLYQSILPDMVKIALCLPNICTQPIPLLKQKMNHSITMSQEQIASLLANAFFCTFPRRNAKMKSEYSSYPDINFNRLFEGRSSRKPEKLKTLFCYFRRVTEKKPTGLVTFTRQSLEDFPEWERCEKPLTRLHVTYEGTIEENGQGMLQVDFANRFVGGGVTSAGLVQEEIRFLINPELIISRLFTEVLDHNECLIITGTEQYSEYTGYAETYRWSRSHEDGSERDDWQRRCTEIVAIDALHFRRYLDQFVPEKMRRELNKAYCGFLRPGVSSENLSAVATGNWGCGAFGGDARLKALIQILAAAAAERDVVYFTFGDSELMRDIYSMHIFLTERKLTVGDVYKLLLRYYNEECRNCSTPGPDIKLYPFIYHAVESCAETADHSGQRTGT

As to `CCn1c(=O)c2cc(S(=O)(=O)NC3(C#N)COC3)ccc2n(CC)c1=O` [Example 10, N-(3-cyanooxetan-3-yl)-1,3-diethyl-2,4-dioxoquinazoline-6-sulfonamide], the results for the concentration for half-maximal inhibition (IC50) against PARG [1] and against PARG [2] were 10 to 100 µM and 500 to 5000 nM, respectively.

In the case of `CCn1c(=O)c2cc(S(=O)(=O)NC3(C(F)F)COC3)ccc2n(CC)c1=O` [Example 18, N-(3-(difluoromethyl)oxetan-3-yl)-1,3-diethyl-2,4-dioxo-1,2,3,4-tetrahydroquinazoline-6-sulfonamide], the half-maximal inhibitory concentration (IC50) against PARG [1] was more than 100 µM; against PARG [2], 500 to 5000 nM.

For `CCn1c(=O)c2cc(S(=O)(=O)NC3(CF)COC3)ccc2n(CC)c1=O` [Example 20, 1,3-diethyl-N-(3-(fluoromethyl)oxetan-3-yl)-2,4-dioxo-1,2,3,4-tetrahydroquinazoline-6-sulfonamide], the half-maximal inhibitory concentration (IC50) on PARG [1] fell in the range of 10 to 100 µM; on PARG [2], 50 to 500 nM.

In the case of `Cc1ncc(Cn2c(=O)c3cc(S(=O)(=O)NC4(C)COC4)ccc3n(Cc3sc(C)nc3C)c2=O)s1` [Example 14, 1-((2,4-dimethylthiazol-5-yl)methyl)-N-(3-methyloxetan-3-yl)-3-((2-methylthiazol-5-yl)methyl)-2,4-dioxo-1,2,3,4-tetrahydroquinazoline-6-sulfonamide], the IC50 on PARG [1] was 10 to 100 µM; against PARG [2] it was less than 50 nM.
